Experimental data as given in patent publication US8883789B2, “Piperazine derivatives and their use as positive allosteric modulators of mGluR5 receptors” (Boehringer Ingelheim International GmbH, priority 2011, dated 2014).

What follows are molecules tested against T1, human recombinant mGluR5 (Homo sapiens, UniProt P41594) (assay: positive modulation of mGluR5, calcium based FLIPR assay). Details: HEK 293 cell line expressing human recombinant mGluR5; Ca2+ peak height after glutamate at approximately 5% basal stimulation; nonlinear regression.
T1 construct: expressed in transfected cells; hygromycin and geneticin selection
T1 sequence (P41594 21-1212): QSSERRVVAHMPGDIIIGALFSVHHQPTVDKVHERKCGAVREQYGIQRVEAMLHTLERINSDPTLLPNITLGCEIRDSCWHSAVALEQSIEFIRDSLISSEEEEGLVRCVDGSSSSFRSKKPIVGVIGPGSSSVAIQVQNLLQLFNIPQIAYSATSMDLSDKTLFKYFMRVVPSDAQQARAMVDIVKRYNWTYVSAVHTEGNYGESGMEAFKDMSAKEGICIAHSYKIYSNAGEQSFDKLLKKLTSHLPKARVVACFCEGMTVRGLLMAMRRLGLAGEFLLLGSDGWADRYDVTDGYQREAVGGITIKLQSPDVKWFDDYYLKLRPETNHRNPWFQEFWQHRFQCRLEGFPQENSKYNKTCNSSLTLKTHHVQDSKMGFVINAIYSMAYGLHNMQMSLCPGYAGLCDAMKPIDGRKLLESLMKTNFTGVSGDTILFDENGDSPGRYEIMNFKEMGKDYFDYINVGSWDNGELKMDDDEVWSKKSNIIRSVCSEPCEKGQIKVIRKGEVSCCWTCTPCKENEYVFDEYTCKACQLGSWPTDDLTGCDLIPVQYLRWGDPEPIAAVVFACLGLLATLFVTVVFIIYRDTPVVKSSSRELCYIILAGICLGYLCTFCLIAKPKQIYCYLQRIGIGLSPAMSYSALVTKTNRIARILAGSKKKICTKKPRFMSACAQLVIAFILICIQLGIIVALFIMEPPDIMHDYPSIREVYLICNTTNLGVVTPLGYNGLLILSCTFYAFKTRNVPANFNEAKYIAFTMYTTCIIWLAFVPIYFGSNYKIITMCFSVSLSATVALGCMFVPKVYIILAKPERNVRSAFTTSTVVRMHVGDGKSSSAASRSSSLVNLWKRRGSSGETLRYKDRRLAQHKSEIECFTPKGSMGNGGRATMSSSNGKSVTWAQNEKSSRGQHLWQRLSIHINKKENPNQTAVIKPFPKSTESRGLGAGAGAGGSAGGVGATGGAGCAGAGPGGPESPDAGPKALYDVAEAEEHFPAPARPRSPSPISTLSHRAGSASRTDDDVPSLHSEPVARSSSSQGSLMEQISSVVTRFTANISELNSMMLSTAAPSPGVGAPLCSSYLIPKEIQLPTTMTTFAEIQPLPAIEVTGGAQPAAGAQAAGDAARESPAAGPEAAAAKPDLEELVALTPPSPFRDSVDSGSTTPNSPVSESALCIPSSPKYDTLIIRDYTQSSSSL
Summary of the method: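 HEK293 cells with tetracycline-free induction, Calcium-4 dye-loaded in Ringer pH 7.4. Compound added 5 min before glutamate at ~5% of maximal effect, 1% DMSO. EC50 from peak Ca2+ fluorescence, normalized to basal glutamate (100%) and 10 μM CDPPB (200%), via nonlinear regression.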

Row | SMILES | EC50 [nM]
1 | CC1(C)CN(C(=O)c2cccc(F)c2)CCN1C(=O)c1ncn(-c2ccccc2)n1 [Example 114] | 233
2 | CC1(C)CN(C(=O)c2cccc(C3CCCC3)n2)CCN1C(=O)c1ncn(-c2cccc(Cl)c2)n1 [Example 177, [1-(3-Chloro-phenyl)-1H-[1,2,4]-triazol-3-yl]-[4-(6-cyclopentyl-pyridine-2-carbonyl]-2,2-dimethyl-piperazin-1-yl]-methanone] | 37
3 | COc1cccc(C(=O)N2CCN(C(=O)c3nnn(-c4cccc(F)c4)n3)C(C)(C)C2)n1 [Example 202] | 65
4 | CC1(C)CN(C(=O)c2cc(Cl)cc(C(F)(F)F)c2)CCN1C(=O)c1ncn(-c2ccccc2)n1 [Example 145] | 120
5 | CC1(C)CN(C(=O)c2cc(Cl)ccc2F)CCN1C(=O)c1ncn(-c2ccccc2)n1 [Example 155] | 134
6 | Cc1oc2ccccc2c1C(=O)N1CCN(C(=O)c2ncn(-c3ccccc3)n2)C(C)C1 (stereo not drawn) [Example 295] | 95
7 | C[C@@H]1CN(C(=O)c2ncn(-c3cccc(Cl)c3)n2)CCN1C(=O)c1cc(Br)c(Br)o1 [Example 249] | 198
8 | Cc1cccc(-n2cnc(C(=O)N3CCN(C(=O)c4cc(Cl)c5c(c4)OCCO5)CC3C)n2)c1 (stereo not drawn) [Example 289] | 487
9 | CC1(C)CN(C(=O)c2cc(Cl)cc(C(F)(F)F)c2)CCN1C(=O)c1ncn(-c2cccc(Cl)c2)n1 [Example 29] | 109
10 | CC1(C)CN(C(=O)c2cnc3[nH]ccc3c2)CCN1C(=O)c1ncn(-c2cccc(Cl)c2)n1 [Example 59] | 1080
11 | CC1(C)CN(C(=O)c2cccc3c2OCO3)CCN1C(=O)c1ncn(-c2cccc(Cl)c2)n1 [Example 48] | 127
12 | COc1cc(C(=O)N2CCN(C(=O)c3ncn(-c4cccc(C)c4)n3)C(C)C2)ccc1C (stereo not drawn) [Example 288] | 372
13 | CC1(C)CN(C(=O)c2c(Cl)nc3sccn23)CCN1C(=O)c1ncn(-c2cccc(Cl)c2)n1 [Example 63] | 89
14 | CCCOc1cccc(C(=O)N2CCN(C(=O)c3ncn(-c4cccc(Cl)c4)n3)C(C)C2)c1 (stereo not drawn) [Example 285] | 746
15 | CC1(C)CN(C(=O)c2cncc(C(F)(F)F)n2)CCN1C(=O)c1ncn(-c2cccc(Cl)c2)n1 [Example 49] | 222
16 | CC1CN(C(=O)c2cccc(-c3ccn(C)n3)c2)CCN1C(=O)c1ncn(-c2cccc(Cl)c2)n1 (stereo not drawn) [Example 269] | 447
17 | COc1nc(C(=O)N2CCN(C(=O)c3nnn(-c4cccc(F)c4)n3)C(C)(C)C2)cc2ccccc12 [Example 207, [2-(3-Fluoro-phenyl)-2H-tetrazol-5-yl]-[4-(1-methoxy-isoquinoline-3-carbonyl)-2,2-dimethyl-piperazin-1-yl]-methanone] | 34
18 | CCCOc1cccc(C(=O)N2CCN(C(=O)c3ncn(-c4cccc(Cl)c4)n3)C(C)(C)C2)c1 [Example 20] | 53
19 | COCC1(C)CN(C(=O)c2cccc(OC)n2)CCN1C(=O)c1ncn(-c2cccc(C)c2)n1 (stereo not drawn) [Example 310] | 802
20 | CC1(C)CN(C(=O)c2cccc(S(C)(=O)=O)c2)CCN1C(=O)c1ncn(-c2ccccc2)n1 [Example 131] | 1870

Row | SMILES | EC50 [nM]
21 | CC1(C)CN(C(=O)c2cccc(-c3ccncc3)n2)CCN1C(=O)c1ncn(-c2ccccc2)n1 [Example 111] | 215
22 | COc1cccc(C(=O)N2C[C@@H](C)N(C(=O)c3ncn(-c4cccc(F)c4)n3)[C@@H](C)C2)n1 [Example 303] | 215
23 | COc1cccc(C(=O)N2CCN(C(=O)c3ncn(-c4ccccc4)n3)CC2C)n1 (stereo not drawn) [Example 247] | 373
24 | Cc1oc2ccc(F)cc2c1C(=O)N1CCN(C(=O)c2ncn(-c3cccc(F)c3)n2)C(C)(C)C1 [Example 2] | 67
25 | Cc1c(C(=O)N2CCN(C(=O)c3ncn(-c4cccc(Cl)c4)n3)C(C)(C)C2)oc2ccccc12 [Example 45] | 54
26 | CC1(C)CN(C(=O)c2cc(Cl)c3c(c2)OCCO3)CCN1C(=O)c1ncn(-c2ccccc2)n1 [Example 104] | 50
27 | Cc1cccc(C(=O)N2CCN(C(=O)c3ncn(-c4ccccc4)n3)C(C)(C)C2)c1 [Example 117] | 208
28 | COc1ccc2c(OC)nc(C(=O)N3CCN(C(=O)c4ncn(-c5cccc(Cl)c5)n4)C(C)(C)C3)cc2c1 [Example 31] | 160
29 | CC1CN(C(=O)c2ccc(Cl)s2)CCN1C(=O)c1ncn(-c2cccc(Cl)c2)n1 (stereo not drawn) [Example 273] | 1320
30 | CC1(C)CN(C(=O)c2cc(Cl)c3c(c2)OCCO3)CCN1C(=O)c1nnn(-c2ccccc2)n1 [Example 164, [4-(8-Chloro-2,3-dihydro-benzol-[1,4]dioxine-6-carbonyl)-2,2-dimethyl-piperazin-1-yl]-(2-phenyl-2H-tetrazol-5-yl)-methanone] | 19
31 | COc1cc(Br)cc(C(=O)N2CCN(C(=O)c3ncn(-c4cccc(Cl)c4)n3)C(C)(C)C2)n1 [Example 12] | 19
32 | Cc1c(C(=O)N2CCN(C(=O)c3ncn(-c4cccc(Cl)c4)n3)CC2C)oc2c(F)cccc12 (stereo not drawn) [Example 232] | 1160
33 | Cc1cc(C)cc(C(=O)N2CCN(C(=O)c3ncn(-c4cccc(Cl)c4)n3)C(C)(C)C2)c1 [Example 70] | 142
34 | CC1(C)CN(C(=O)c2cc3nccc(-c4ccccc4)n3n2)CCN1C(=O)c1ncn(-c2cccc(Cl)c2)n1 [Example 67] | 29
35 | CC1(C)CN(C(=O)c2cc(Cl)cc(Cl)c2)CCN1C(=O)c1ncn(-c2ccccc2)n1 [Example 153] | 101
36 | Cc1cccc(-n2cnc(C(=O)N3CCN(C(=O)c4c(C)oc5ccccc45)CC3(C)C)n2)c1 [Example 10] | 95
37 | O=C(c1cc(Br)c(Br)o1)N1CCN(C(=O)c2ncn(-c3cccc(F)c3)n2)C2(CC2)C1 [Example 305] | 503
38 | CC1(C)CN(C(=O)c2cc(Br)c(Br)o2)CCN1C(=O)c1ncn(-c2cccc(F)c2)n1 [Example 175] | 104
39 | CCC[C@H]1CN(C(=O)c2ncn(-c3cccc(F)c3)n2)CCN1C(=O)c1cc(Br)c(Br)o1 [Example 262] | 193
40 | CCOc1nc(C(=O)N2CCN(C(=O)c3ncn(-c4ccccc4)n3)C(C)(C)C2)cc2ccccc12 [Example 120] | 43

Further lines, results first:

Row | EC50 [nM] | SMILES
41 | 128 | COc1cccc(C(=O)N2CCN(C(=O)c3ncn(-c4ccccc4)n3)C(C)(C)C2)n1 [Example 109]
42 | 428 | CC1CN(C(=O)c2ncn(-c3cccc(Cl)c3)n2)CCN1C(=O)c1cc2ccccc2o1 (stereo not drawn) [Example 214]
43 | 233 | CC1CN(C(=O)c2cc(Cl)c3c(c2)OCCO3)CCN1C(=O)c1ncn(-c2cccc(Cl)c2)n1 (stereo not drawn) [Example 283]
44 | 441 | COc1nc(C(=O)N2CCN(C(=O)c3ncn(-c4ccc(C)c(F)c4)n3)C(C)(C)C2)cc2ccccc12 [Example 158]
45 | 112 | Cc1c(C(=O)N2CCN(C(=O)c3ncn(-c4ccccc4)n3)C(C)(C)C2)oc2ccc(F)cc12 [Example 108]
46 | 512 | CC1CN(C(=O)c2ncn(-c3cccc(Cl)c3)n2)CCN1C(=O)c1ccc2c(c1)nc(CC1CCCC1)n2C (stereo not drawn) [Example 229]
47 | 22 | CC1(C)CN(C(=O)c2cccc(C(F)(F)F)n2)CCN1C(=O)c1ncn(-c2cccc(Cl)c2)n1 [Example 13]
48 | 366 | CC1(C)CN(C(=O)c2cccc(C3CCOCC3)n2)CCN1C(=O)c1ncn(-c2cccc(Cl)c2)n1 [Example 176, [1-(3-Chloro-phenyl)-1H-[1,2,4]-triazol-3-yl]-{2,2-dimethyl-4-[6-(tetrahydro-pyran-4-yl)-pyridine-2-carbonyl]-piperazin-1-yl}-methanone]
49 | 36 | CC1(C)CN(C(=O)c2cccc(C3CC3)n2)CCN1C(=O)c1nnn(-c2cccc(F)c2)n1 [Example 185]
50 | 101 | COc1cccc(C(=O)N2CCN(C(=O)c3ncn(-c4cccc(F)c4)n3)C(C)(C)C2)n1 [Example 4]
51 | 53 | Cc1cccc(-n2cnc(C(=O)N3CCN(C(=O)c4cc(Br)c(Br)o4)CC3(C)C)n2)c1 [Example 8]
52 | 661 | CC1(C)CN(C(=O)c2coc(C3CC3)n2)CCN1C(=O)c1ncn(-c2ccccc2)n1 [Example 140]
53 | 577 | COCC1(C)CN(C(=O)c2cccc(OC)n2)CCN1C(=O)c1ncn(-c2cccc(Cl)c2)n1 (stereo not drawn) [Example 311]
54 | 869 | CCOc1cccc(C(=O)N2CCN(C(=O)c3ncn(-c4cccc(Cl)c4)n3)C(C)(C)C2)n1 [Example 62]
55 | 278 | COc1cccc(C(=O)N2CCN(C(=O)c3ncn(-c4cccc(Cl)c4)n3)C[C@@H]2C)n1 [Example 252, (S)-{4-[1-(3-Chloro-phenyl)-1H-[1,2,4]triazole-3-carbonyl]-2-methyl-piperazin-1-yl}-(6-methoxy-pyridin-2-yl)-methanone]
56 | 845 | COc1cccc(C(=O)N2CCN(C(=O)c3ncn(-c4cccc(F)c4)n3)C3(CC3)C2)n1 [Example 304, {4-[1-(3-Fluoro-phenyl)-1H-[1,2,4]-triazole-3-carbonyl]-4,7-diaza-spiro[2.5]oct-7-yl}-(6-methoxy-pyridin-2-yl)-methanone]
57 | 37 | CC1(C)CN(C(=O)c2cc(Cl)c3c(c2)OCCO3)CCN1C(=O)c1nnn(-c2cccc(F)c2)n1 [Example 170]
58 | 64 | C#CCOc1cccc(C(=O)N2CCN(C(=O)c3ncn(-c4cccc(Cl)c4)n3)C(C)(C)C2)c1 [Example 72]
59 | 436 | CCn1ccc(C(=O)N2CCN(C(=O)c3ncn(-c4cccc(Cl)c4)n3)C(C)(C)C2)n1 [Example 56]
60 | 476 | COc1cc(C(=O)N2CCN(C(=O)c3ncn(-c4cccc(F)c4)n3)CC2C)ccc1C (stereo not drawn) [Example 233]
61 | 886 | COc1cccc(C(=O)N2CCN(C(=O)c3ncn(-c4cccc(C)c4)n3)C[C@H]2C)n1 [Example 251, (R)-(6-Methoxy-pyridin-2-yl)-[2-methyl-4-(1-m-tolyl-1H-[1,2,4]-triazole-3-carbonyl)-piperazin-1-yl]-methanone]
62 | 48 | COc1cccc(C(=O)N2CCN(C(=O)c3ncn(-c4cccc(Cl)c4)n3)C(C)(C)C2)n1 [Example 18]
63 | 1810 | COc1ccc(C(=O)N2CCN(C(=O)c3ncn(-c4ccccc4)n3)C(C)(C)C2)o1 [Example 132]
